US20240245856A1, “Electromechanical Devices for the Burst Release of Indefinitely Stable Dry Powder Drugs” (Massachusetts Institute of Technology, priority 2023, published 2024)
Where two headings read alike, the source gives them in different places.

Experiments:
healthy C57/BL6J mice = conditions: for time after release at which increase in BG is evident / time after release at which increase in HR is evident: 1 mg pill, 5%-95% Epinephrine-Lactose, subcutaneous, mice
Procedure: To test this, studies with epinephrine, a naturally occurring circulating neurotransmitter hormone produced by the adrenal medulla, were performed and used as emergency medication in the treatment of anaphylaxis, cardiac arrest, asthma, and hypotension. Epinephrine release targets adrenergic receptors is accompanied by increases in heart rate (HR).
In vivo epinephrine release involved studies on anesthetized adult, male, healthy C57/BL6J mice. Mice were implanted with emergency rescue devices containing epinephrine doses of 1.4 mg/kg via the surgical procedures described above and allowed to recover for a 3-day period. On day 3, mice were carefully anesthetized via the flow of 1% isoflurane, and hair around the dorsal neck region was removed via the application of a depilatory cream (e.g., Nair). A collar-mounted optical probe (e.g., a MouseOx, Starr Life Science, Oakmont, PA) was then used to track heart rate. Additional biomarkers measured by the probe included oxygen saturation (SpO2), pulse-width distension (a measure of blood flow) and breath rate. Animals were monitored until their heart rate reached steady values of 380-400 bpm. A primary transmitter antenna was then brought into close proximity for 2-5 minutes to induce wireless release. Anesthetized animals were then monitored via optical probe measurements for 30 minutes, followed by euthanasia and explantation to evaluate opening and drug dissolution.

[1] = In vivo IVIS fluorescence imaging of release from subcutaneously implanted device; parameters: species or system mice; conditions: for biodistribution (IVIS imaging of major organs): organs imaged 40 minutes after subcutaneous release
Procedure: Imaging studies with fluorescently labeled lyophilized insulin-dye conjugates (Ins-Cy7) validate burst release in vivo, over timescales of about 10 minutes. Devices (e.g., device 100) were implanted in subcutaneous sites, with release apertures 171 facing into muscle beds (the complete surgical implantation procedure is disclosed below).
An equivalent set of studies with glucagon conjugated with cy7 (GCG-cy7) reveal similar release profiles as illustrated in FIG. 5A with strong fluorescence visible within the first 20 minutes following release. […] As shown herein, dry-powder injection directly into subcutaneous sites may function as a mechanism to both maintain long-term drug stability and ensure rapid action following release.
Animals were anesthetized via isoflurane and placed in an in vivo imaging system (IVIS). Baseline fluorescent measurements tuned to emission peaks of cy7 (exposure time 3 seconds, 640 nm<wavelength<840 nm) established pre-release fluorescence profiles. A primary antenna placed in close proximity to the device for about 1 minute induced wireless drug release. Sequential imaging following release at intervals of about 5 minutes then allowed for imaging of fluorescence signals resulting from drug dissolution and diffusion. […]

[2] = test system: C57/BL6 mice with chemically induced diabetes via Streptozotocin (STZ); experiment: Post-fasting glucagon release in diabetic mice (blood glucose); assay type: in vivo; conditions: glucagon release studies in diabetic mice
Procedure: In an initial set of experiments (results shown in FIG. 5C) mice were fasted to induce mild hypoglycemia baseline BG 113±1.9 mg dl^−1). Wireless release is triggered at time t=0 minutes by placing the awake, freely moving mice in a modified enclosure capable of providing wireless power at 13.56 MHz. Successive measurements then reveal a rapid rise in BG measurements relative to baselines, with a peak value ([…]) occurring at tmax=15 minutes following release. […] Following release, explantation confirmed complete opening and dissolution of the pills (FIG. 22).
0.5 μl volumes of blood were collected via tail-pricks with 25-27G and measured with a commercial handheld blood glucose meter (e.g., a Clarity, BG1000). The upper limit of measurements is 600 mg/dl on these systems and values above this were recorded as 600 mg/dl for analysis. Non-fasting values were recorded for 7-10 days following implantation, after which BG values were recorded following a 2.5 hour fast. Mice were weighed before and after fasting periods. Measurements in experimental groups (O2, Non O2 controls) were recorded in triplicate to account for any variability in readings and averaged.
(i) Post-fasting studies: These studies were performed […] after device implantation in STZ-induced diabetic BL6 mice. […] BG values recorded immediately following release served as t=0 minutes measurements. […]

[3] = HPLC drug dissolution testing of glucagon pills in PBS; assay type: physicochemical; conditions: 37° C., across a range of loading fractions
Excerpt: Capabilities in closed-loop burst release enabled by wireless communication between commercially available biosensors and emergency rescue devices represent a feature of this technology. One example is the combination of glucagon release with CGM technology for fully closed-loop glucose-responsive hypoglycemic rescue during periods of sleep or hypoglycemia unawareness and in pediatric patients who are unable to self-administer glucagon. […] Benchtop testing in a physiological mimic glucose solution was also performed. […]
Several known concentrations of glucagon (x, unit μM) were tested with the HPLC and the corresponding absorbance peak areas (y, A.U.) were measured. […] This equation yields glucagon concentrations of testing solutions at different time points via measurements of absorbance peak areas. […]
HPLC was performed under the following conditions using an Agilent InfinityLab Poroshell 120 (EC-C18, 4.6 mm×100 mm, 2.7 μm particle size) at 25° C., using 0.1% formic acid in water (solvent A) and acetonitrile (solvent B) at 0.6 ml/min. […] Glucagon UV absorption was monitored at 280 nm with retention time (Rt)=19.2 min.

[4] = test system: blood glucose concentrations; conditions: administration for acute hypoglycemia; cited from earlier work
[5] = cited from earlier work
[6] = 30 minutes after release, 1 mg pill 5%-95% Epinephrine-Lactose, n=3

CNC[C@H](O)c1ccc(O)c(O)c1 [Epinephrine]
time after release at which increase in BG is evident (healthy C57/BL6J mice): ≤ 10 min
time after release at which increase in HR is evident (healthy C57/BL6J mice): ≤ 10 min
time after release at which increase in BG is evident (healthy C57/BL6J mice; listed as epinephrine): ≤ 5 min
time after release at which increase in HR is evident (healthy C57/BL6J mice; listed as epinephrine): ≤ 5 min
ΔBG (healthy C57/BL6J mice; [6]): 66 ± 23 mg/dL
ΔHR (healthy C57/BL6J mice; [6]): 140±33 bpm
correlation of other biomarkers (heart rate, SpO2, pulse-width distension) with release (healthy C57/BL6J mice; pills at 0.3 mg/kg and 1.5 mg/kg versus sham implants): weak correlation

GCG-cy7: glucagon conjugated with cy7; 1-mg glucagon-lactose (4%-96% by weight) pill labeled with fluorescent dye
biodistribution (IVIS imaging of major organs) [1]: confinement to liver site
time after release at which strong fluorescence is visible ([1]; release 2 days after subcutaneous implantation): ≤ 20 min

Ins-Cy7: fluorescently labeled lyophilized insulin-dye conjugates; 1 mg Insulin-cy7-Lactose (4%-96% by weight) pills
fluorescence before wireless release ([1]; implanted sealed device, until release 7 days after implantation): no detectable fluorescence
biodistribution (IVIS imaging of major organs) [1]: confined to the liver
timescale of burst release in vivo ([1]; subcutaneous device, mice, IVIS): about 10 minutes
time after release at which fluorescence is detectable ([1]; subcutaneous site, release on day 7): ≤ 5 min
increase in local fluorescence intensity (ROI) ([1]; within the first 15 minutes following release, n=3 mice): roughly tenfold

glucagon
time to increase in blood glucose after release [2]: < 10 min
dissolution of dry powder drug (HPLC) [3]: rapid dissolution
time to increase in blood glucose concentrations [4]: < 10 min
stability in solution [5]: < 1 days
